Measurements published in ChEMBL document CHEMBL2177021, “Flavaglines as potent anticancer and cytoprotective agents” (J Med Chem, 2012).
Active and inactive are the calls of the source. The rule behind the calls is not given here.

Legend:
KB = details: Homo sapiens, 72 h
HL-60 = assay: cells; details: Homo sapiens, HL-60, 72 h
Description: Cytotoxicity against human HL60 cells incubated for 72 hrs by MTS assay

HCT-116 = details: Homo sapiens, HCT-116, 72 h
[1] = Cytotoxicity against human HL60R cells overexpressing Pgp incubated for 72 hrs by MTS assay
H9c2 [2] = assay: Cardioprotection in rat H9c2 cells assessed as reduction in doxorubicin-induced toxicity at 10 nM pre-treated 10 hrs before doxorubicin challenge and measured 14 hrs post doxorubicin challenge by propidium iodide and annexin V staining; format: functional, cell-based
H9c2 [3] = assay: Cardioprotection in rat H9c2 cells assessed as reduction in doxorubicin-induced toxicity at 100 nM pre-treated 10 hrs before doxorubicin challenge and measured 14 hrs post doxorubicin challenge by propidium iodide and annexin V staining; format: functional, cell-based
Rattus norvegicus [4] = organism: Rattus norvegicus; assay: Neuroprotection in Wistar rat DA neurons assessed as reduction in MPP+-induced neurotoxicity at 10 uM pre-treated 1 day before MPP+ by tyrosine hydroxylase detection based immunocytochemistry; format: functional
[5] = tested on: Cerebellar granule neurone; assay: Neuroprotection in mouse cerebellar granule neurons assessed as reduction in cisplatin-induced neurotoxicity at 10 nM incubated simultaneously with cisplatin for 48 hrs by MTT assay; format: functional
[6] = Toxicity in mouse cerebellar granule neurons assessed as induction of apoptosis at 0.25 to 10 nM incubated for 48 hrs by MTT assay; details: cerebellar granule neurone, 0.01 µM
Rattus norvegicus [7] = organism: Rattus norvegicus; assay: Neuroprotection in Wistar rat DA neurons assessed as reduction in MPP+-induced neurotoxicity at 100 nM pre-treated 1 day before MPP+ by tyrosine hydroxylase detection based immunocytochemistry; format: functional
[8] = tested on: Cerebellar granule neurone; assay: Neuroprotection in mouse cerebellar granule neurons assessed as reduction in cisplatin-induced neurotoxicity at 5 nM incubated simultaneously with cisplatin for 48 hrs by MTT assay; format: functional
[9] = tested on: Cerebellar granule neurone; assay: Neuroprotection in mouse cerebellar granule neurons assessed as reduction in cisplatin-induced neurotoxicity at 1 to 5 nM incubated simultaneously with cisplatin for 48 hrs by MTT assay; format: functional
Rattus norvegicus [10] = organism: Rattus norvegicus; assay: Neuroprotection in Wistar rat DA neurons assessed as reduction in MPP+-induced neurotoxicity at 1 to 1000 nM pre-treated 1 day before MPP+ by tyrosine hydroxylase detection based immunocytochemistry; format: functional
[11] = tested on: Cerebellar granule neurone; assay: Neuroprotection in mouse cerebellar granule neurons assessed as reduction in cisplatin-induced neurotoxicity at 0.25 to 10 nM incubated simultaneously with cisplatin for 48 hrs by MTT assay; format: functional
Rattus norvegicus [12] = organism: Rattus norvegicus; assay: Neuroprotection in Wistar rat DA neurons assessed as reduction in MPP+-induced neurotoxicity at 1 to 100 nM pre-treated 1 day before MPP+ by tyrosine hydroxylase detection based immunocytochemistry; format: functional
Rattus norvegicus [13] = organism: Rattus norvegicus; assay: Neuroprotection in Wistar rat DA neurons assessed as reduction in MPP+-induced neurotoxicity at 10 nM pre-treated 1 day before MPP+ by tyrosine hydroxylase detection based immunocytochemistry; format: functional
Rattus norvegicus [14] = organism: Rattus norvegicus; assay: Neuroprotection in Wistar rat DA neurons assessed as reduction in MPP+-induced neurotoxicity at 1 nM pre-treated 1 day before MPP+ by tyrosine hydroxylase detection based immunocytochemistry; format: functional
Rattus norvegicus [15] = organism: Rattus norvegicus; assay: Neuroprotection in Wistar rat DA neurons assessed as reduction in MPP+-induced neurotoxicity at 0.1 to 1000 nM pre-treated 1 day before MPP+ by tyrosine hydroxylase detection based immunocytochemistry; format: functional
Mus musculus [16] = organism: Mus musculus; assay: Cardioprotective effect in mouse assessed as attenuation of cardiomyocyte apoptosis by measuring reduction in mouse mortality; format: functional; design: scale not given: the % may be the effect or the level left
Mus musculus [17] = organism: Mus musculus; assay: Cardioprotective effect in mouse assessed as attenuation of cardiac fibrosis by measuring reduction in mouse mortality; format: functional, Heart; design: scale not given: the % may be the effect or the level left

SMILES	IC50 (KB) [nM]	IC50 (HL-60) [nM]	IC50 (HCT-116) [nM]	IC50 [1] [nM]	Activity (H9c2 [2])	Activity (H9c2 [3])	other results
COc1cc(OC)c2c(c1)O[C@@]1(c3ccc(Br)cc3)[C@H](c3cccc(F)c3)C[C@H](NC(N)=O)[C@@]21O	2.9	3.3	2.1	–	–	–	–
COc1cc(OC)c2c(c1)O[C@@]1(c3ccc(Br)cc3)[C@H](c3cccc(F)c3)C[C@H](NC=O)[C@@]21O	3.5	3.4	1.9	1.4	Active	–	–
COc1ccc([C@@]23Oc4cc(OC)cc(OC)c4[C@]2(O)[C@H](O)C[C@H]3c2cccc(F)c2)cc1	41	94	23	60	Active	Active	Activity (Rattus norvegicus [4]): inactive; Activity [5]: inactive; Activity [6]: Non-toxic; Activity (Rattus norvegicus [7]): Active; Activity [8]: Active
COc1cc(OC)c2c(c1)O[C@@]1(c3ccc(Br)cc3)[C@H](c3cccc(F)c3)[C@@H](C(N)=O)[C@@H](O)[C@@]21O	1.2	1.4	1.2	3.3	Active	inactive	–
COc1cc(OC)c2c(c1)O[C@@]1(c3ccc(Br)cc3)[C@H](c3cccc(F)c3)C[C@H](NC(=O)CO)[C@@]21O	37	31	22	42	inactive	Active	–
COC(=O)[C@H]1[C@@H](O)[C@@]2(O)c3c(OC)cc(OC)cc3O[C@@]2(c2ccc(Cl)cc2)[C@@H]1c1ccccc1	2.4	29	19	13	–	–	–
CC[C@]1(O)C[C@@H]2CN(CCc3c([nH]c4ccccc34)[C@@](C(=O)OC)(c3cc4c(cc3OC)N(C)[C@H]3[C@@](O)(C(=O)OC)[C@H](OC(C)=O)[C@]5(CC)C=CCN6CC[C@]43[C@@H]65)C2)C1 [VINBLASTINE]	–	–	–	> 100	–	–	–
COc1cc(OC)c2c(c1)O[C@@]1(c3ccc(Br)cc3)[C@H](c3ccccc3)C[C@H](NC=O)[C@@]21O	–	–	–	1.7	Active	–	Activity [6]: Non-toxic; Activity [9]: Active; Activity (Rattus norvegicus [10]): Active; Activity [11]: Active; Activity (Rattus norvegicus [12]): Active
COC(=O)[C@H]1[C@@H](O)[C@@]2(O)c3c(OC)cc(OC)cc3O[C@@]2(c2ccc(Br)cc2)[C@@H]1c1cccc(F)c1	2.8	3.2	2.4	14	–	–	Activity (Rattus norvegicus [12]): Active
COc1cc(OC)c2c(c1)O[C@@]1(c3ccc(Br)cc3)[C@H](c3cccc(F)c3)C[C@H](NC(=O)CN(C)C)[C@@]21O	5.8	4.8	5	5.6	Active	Active	–
COc1cc(OC)c2c(c1)O[C@@]1(c3ccc(Cl)cc3)[C@H](c3ccccc3)C[C@@H](O)[C@@]21O	6.6	5.9	4.6	2.4	Active	Active	–
COC(=O)[C@H]1[C@@H](O)[C@@]2(O)c3c(OC)cc(OC)cc3O[C@@]2(c2ccc(OC)cc2)[C@@H]1c1cccc(F)c1	9.9	20	5.2	28	–	–	–
COc1cc(OC)c2c(c1)O[C@@]1(c3ccc(Cl)cc3)[C@H](c3cccc(F)c3)C[C@H](NC(=O)N(C)C)[C@@]21O	2.1	3.2	1.9	–	Active	Active	Activity (Rattus norvegicus [13]): inactive
CCC(=O)N[C@H]1C[C@@H](c2cccc(F)c2)[C@]2(c3ccc(Br)cc3)Oc3cc(OC)cc(OC)c3[C@]12O	7.8	6.2	5.3	4.9	Active	inactive	–
COc1cc(OC)c2c(c1)O[C@@]1(c3ccc(Cl)cc3)[C@H](c3cccc(F)c3)C[C@H](NC=O)[C@@]21O	10	13	8.2	–	Active	Active	–
COc1cc(OC)c2c(c1)O[C@@]1(c3ccc(Br)cc3)[C@H](c3cccc(F)c3)C[C@H](NC(=O)N(C)C)[C@@]21O	3.6	4.1	2.4	2.2	Active	Active	Activity (Rattus norvegicus [14]): Active; Activity [6]: Non-toxic; Activity (Rattus norvegicus [15]): Active
COc1cc(OC)c2c(c1)O[C@@]1(c3ccc(Br)cc3)[C@H](c3cccc(F)c3)C[C@H](NC(C)=O)[C@@]21O	8.4	10	7.5	7.1	Active	inactive	–
COC(=O)N[C@H]1C[C@@H](c2cccc(F)c2)[C@]2(c3ccc(Cl)cc3)Oc3cc(OC)cc(OC)c3[C@]12O	50	71	38	–	–	Active	Activity (Rattus norvegicus [15]): Active
COc1cc(OC)c2c(c1)O[C@@]1(c3ccc(Br)cc3)[C@H](c3ccccc3)C[C@@H](O)[C@@]21O	2.4	3.8	5.8	4.5	Active	Active	Activity (Mus musculus [16]): 50%; Activity (Rattus norvegicus [13]): Active; Activity (Mus musculus [17]): 50%
COc1cc(OC)c2c(c1)O[C@@]1(c3ccc(Br)cc3)[C@H](c3cccc(F)c3)C[C@@H](O)[C@@]21O	10	8.9	5.3	3.1	Active	Active	–
CC(=O)O[C@@]12CO[C@@H]1C[C@H](O)[C@@]1(C)C(=O)[C@H](O)C3=C(C)[C@@H](OC(=O)[C@H](O)[C@@H](NC(=O)OC(C)(C)C)c4ccccc4)C[C@@](O)([C@@H](OC(=O)c4ccccc4)[C@H]21)C3(C)C [DOCETAXEL]	–	–	–	531	–	–	–
